Measured values reported in patent publication US20250241913A1, “COMBINATION THERAPIES BASED ON PD-1 INHIBITORS AND SIK3 INHIBITORS” (iOmx Therapeutics AG, priority 2022, published 2025).

Experiments:
KLN205 tumor cells = experiment: KLN205 lung squamous cell carcinoma model, subcutaneous, tumor growth; format: in vivo, DBA/2 mice; settings: compared to control, E9 25 mg/kg twice daily oral, anti-murine-PD-1 mAb 10 mg/kg twice weekly i.p.
Method: FIG. 4: (A) Average tumor growth kinetics and overall survival monitored for the EMT6 tumor model after treatment start. […] Treatment regimes are indicated by indeces 1 to 4 in the figure and represent: (1) 10 ml/kg vehicle+10 mg/kg mIgG1e ctrl. (2) 10 ml/kg vehicle+10 mg/kg α-mu-PD-1 (3) 12.5 mg/kg compound E9+10 mg/kg mIgG1e ctrl. and (4) 12.5 mg/kg compound E9+10 mg/kg α-mu-PD-1 (B) Average tumor growth kinetics for the KLN205 tumor model upon initiation of therapy; Treatment regimes are indicated by indeces 1 to 4 in the figure and represent: (1) 10 ml/kg vehicle+10 mg/kg mIgG1e ctrl. (2) 10 ml/kg vehicle+10 mg/kg α-mu-PD-1 (3) 25 mg/kg compound E9+10 mg/kg mIgG1e ctrl. And (4) 25 mg/kg compound E9+10 mg/kg α-mu-PD-1.
EMT6 tumor cells were implanted into mammary fat pad in BALB/c mice and randomized at an average tumor volume of 65mm^3. KLN205 tumor cells were subcutaneously implanted in DBA/2 mice and randomized at an average tumor volume of 60 mm^3. Both animal models were treated twice daily by oral gavage with the indicated doses of compound E9 and twice weekly, intraperitoneal with 10 mg/kg anti-murine-PD-1 mAb (clone: RMP1-14) or corresponding controls.

MC38 tumor cells = experiment: MC38 tumor model, subcutaneous, tumor growth, survival and flow cytometry of tumor infiltrating cells; format: in vivo, C57BI6/N mice
Method: FIG. 3: (A) Average tumor growth kinetics and overall survival monitored for the MC38 tumor model after treatment start. Treatment regimes are indicated by indeces 1 to 4 in the figure and represent: (1) 10 ml/kg vehicle+10 mg/kg mIgG1e ctrl. (2) 10 ml/kg vehicle+10 mg/kg α-muPD-1 (3) 25 mg/kg compound E9+10 mg/kg mIgG1e ctrl. and (4) 25 mg/kg compound E9+10 mg/kg α-mu-PD-1 (B) Tumor infiltrating cytotoxic T cells (CTL), CTL to regulatory T cell ratio, tumor associated M2-macrohages (M2-TAM) and M2-like TAM were analyzed by flow cytometry.
MC38 tumor cells were subcutaneously implanted in C57BI6/N mice, randomized at an average tumor volume of 100 mm^3 and tumor bearing mice were treated twice daily with 25 mg/kg compound E9 by oral gavage and twice weekly, intraperitoneal with 10 mg/kg anti-murine-PD-1 mAb (clone: RMP1-14) or corresponding controls.

[1] = monotherapy, 25 mg/kg E9 twice daily by oral gavage

SMILES: Cc1nc(Nc2ncc(C(=O)Nc3c(CF)csc3Cl)s2)cc(N2CCN(C)CC2)n1 [E9, N-(2-chloro-4-(fluoromethyl)thiophen-3-yl)-2-((2-methyl-6-(4-methylpiperazin-1-yl)pyrimidin-4-yl)amino)thiazole-5-carboxamide]
- Growth inhibition (TGI) (KLN205 tumor cells): 22%
- CTL to Treg ratio (MC38 tumor cells; flow cytometry): promotion
- cytotoxic T lymphocyte (CTL) activity (MC38 tumor cells; flow cytometry): activating
- immunosuppressive myeloid cells in tumour microenvironment (MC38 tumor cells; flow cytometry): reducing
- regulatory T cells (Treg) in tumour microenvironment (MC38 tumor cells; flow cytometry): reducing
- anti-tumor efficacy (MC38 tumor cells; [1]): highly significant anti-tumor efficacy
- survival (MC38 tumor cells; [1]): prolonged survival
